Measured values as given in US9452988B2, “Bendamustine derivatives and methods of using same” (Ignyta, Inc., priority 2012, dated 2016).
Where two headings read alike, the source gives them in different places. Marks after values point to notes of the source that are not given here.

Assays:
[1] = system: H-460 (NSCLC); experiment: MTS cell assay, H-460; type: cell-based, Human; details: Homo sapiens, NCI-H460, 72 hours
Description: (§1) Human carcinoma cells (2,000 cells/well) were incubated with the desired concentration of the test molecule (0-200 μM) for 72 hours. The cells were then incubated with MTS solution (Promega) for 1-2 hours, and the compounds effects on cell proliferation was determined by measuring the absorbance at 490 nm. Cell growth was expressed as a percent of the appropriate control (placebo). […] All data reported was the mean±SE of three independent experiments.

[2] = system: MB-231 (HBC); experiment: MTS cell assay, MB-231; type: cell-based, Human; details: Homo sapiens, 72 hours
Description: Charles River Labs athymic nude mice bearing MDA-MB-231 breast carcinoma cell line subcutaneous xenografts (5×10^6 cells in matrigel) were sacrificed to make a tumor isolate. Using sterile instruments and working aseptically, the tumors were removed from the euthanized animal. The tumor was placed in a 50 mL sterile conical tube and 5 mL of trypsin was added. The tumor was cut into small pieces and incubated at 37° C. for 30 minutes. After incubation, a cell strainer was placed on a second, sterile, 50 mL conical tube and the contents of the first tube were placed in the cell strainer. The tissue was forced through the filter using the flat end of a syringe plunger. The cell strainer was washed with 5 mLs of media containing FBS. The cells were spun down and the supernatant was discarded. The cells were resuspended in 20 mLs of complete media containing P/S and placed in a 75 cm flask.
as §1

[3] = system: MDA-MB-231 xenografts; experiment: Nude mouse MDA-MB-231 tumor efficacy study; type: in vivo, athymic nude mice; details: tail vein day 1 and 2
Description: Charles River Labs athymic nude mice were subcutaneous injected with 5×10^6 human tumor cells in matrigel. The tumor volume was monitored until an average tumor size of ˜150 mm^3 was obtained in the mouse population The mice were then randomized in to one of the nine treatment groups (summarized in table below) with a population of 10 mice per group (n=10). Each of the formulations were dosed at 100 μL fixed volume via tail vein injection on day 1 and day 2 of the study. Mice were weighed and the tumor volume measured every 3-4 days for 3 weeks of the study duration.

[4] = system: RPMI 8226 (Human Plasmacytoma, Myeloma B Cells)
Description: Cells (originated from ATCC) were cultured on RPMI medium. Cell suspension was centrifuged and resuspended in 50% Matrigel/HBSS to a final concentration of 7×10^7 cells/ml. The suspension was implanted s.c. in the right flank of the anesthetized mouse at a volume of 100 μl.
Seven ml saline were added to the original vial containing 3.5 mg powder resulting in 0.5 mg/ml. Three ml of this solution were added to 27 ml saline to receive 0.05 mg/ml concentration.
bendamustine preparation: 13.5 mg was dissolved in 3.6 ml of 1:1 mixture of 0.9% saline/5% mannitol just before the treatment. 1.05 ml of this solution was added to 0.95 ml diluent for 2 mg/ml solution.
1.05 ml of this solution was added to 0.95 ml diluent for 2 mg/ml solution.
On day 21, mice were sorted by the optimal average tumor volume (˜150 mm^3) and were allocated into eight groups of 9 mice each.
[formula] The analysis of weight gain and tumor volume progression was made using one-way ANOVA followed by Tukey post-hoc comparisons. Results

[5] = system: H460 tumor cells (large cell lung cancer); experiment: Nude mouse H460 tumor efficacy study; type: in vivo, nu/nu mouse; details: tail vein
Description: 2×10^6 cells/100 ul in the mix of medium and Matrigel (1:1 ratio) solution was injected into right back flank of each nu/nu mouse. The implanted mice were monitored and measured with electric calipers. The study started when the tumors reached ˜150 mm^3 in size. The mice were measured and randomized into 9 groups with 10 mice in each group per the below table: […]

[6] = Tumor and plasma levels, H460 tumor efficacy PK group; details: nu/nu, mouse, in vivo
Description: The formulations were administrated as 100 μL dose volume through tail vein injection within 30 minutes after compounds were formulated. All the mice were weighed and tumors measured twice weekly. At the last day of the study, plasma, tumor, lung, liver, spleen, left kidney, brain and legs were collected and quickly frozen for further analysis two hours post-dosing.
(§2) A portion of the tumor bearing mice were dosed as a satellite PK group. Each group was dosed as described for the tumor efficacy group, however the PK group was euthanized and tissue samples collected at 1, 3 and 6 hours post dosing on day 2. The tissues collected included blood, lung, liver and tumor. Samples were analyzed for bendamustine HCl and the corresponding ester analogue as described in the LC-MS protocol section.
(§3) Plasma and other tissues were prepared for high performance liquid chromatography (HPLC)/mass spectrometric analysis according to a standard protocol following protein precipitation with acetonitrile containing an internal standard. The samples were then analyzed for both bendamustine HCl and bendamustine esters of the invention and alprenolol (internal standard) via HPLC coupled with tandem mass spectrometry. Tissue samples were homogenized in sodium phosphate buffer and the value obtained from the assay was multiplied by 3 to correct for dilution during processing.

[7] = reported; cited from earlier work
[8] = Tumor and plasma levels, MDA-MB-231 tumor efficacy PK group; details: athymic nude, mouse, in vivo
Description: as §2, §3

[9] = CD-1 mice plasma pharmacokinetics, bendamustine C14 ester albumin nanoparticle i.v.; type: in vivo; details: mouse, iv; for Vd: Mean n = 3; for AUC(0-t): Mean n = 3, read-out: AUC0-6 of C14 Ester in plasma; for AUC(0-inf): Mean n = 3, read-out: AUC0-∞ of C14 Ester in plasma; for clearance: Mean n = 3, read-out: CL of C14 Ester; for half-life: Mean n = 3, read-out: t1/2 of C14 Ester in plasma (converted)
Description: Another embodiment of the invention, bendamustine C14 ester was formulated into a nanoparticle intraveneous formulation according to the methods described above and administered to CD-1 mice. The amount of bendamustine (BM1) and bendamustine C14 ester was determined in the mice plasma.

[10] = 20 mg/kg iv on days 1 and 2, day 46
[11] = 37.5 mg/kg iv on days 1 and 2, day 46
[12] = Solution (TREANDA), 37.5 mg/kg Free Base Eq.
[13] = HSA nanoparticle, 80 mg/kg Free Base Eq.
[14] = Solution, 80 mg/kg Free Base Eq.
[15] = 80 mg/kg, Ester level in plasma at 1 hour, HSA nanoparticle
[16] = 80 mg/kg, Ester level in plasma at 1 hour, Solution
[17] = 80 mg/kg, Ester level in tumor at 1 hour, HSA nanoparticle
[18] = 80 mg/kg, Ester level in tumor at 1 hour, Solution

COC(=O)CCCc1nc2cc(N(CCCl)CCCl)ccc2n1C [—CH3, 4-{5-[Bis-(2-chloro-ethyl)-amino]-1-methyl-1H-benzoimidazol-2-yl}-butyric acid methyl ester]
melting point: 60 to 63 °C (dec.) | IC50 [1]: 1.2 µM | IC50 [2]: 66 µM

Cn1c(CCCC(=O)O)nc2cc(N(CCCl)CCCl)ccc21 [Bendamustine, 4-[5-[bis(2-chloroethyl)amino]-1-methylbenzimidazol-2-yl]butanoic acid]
% Morbidity ([3]; Solution, 37.5 mg/kg): 10% | % Mortality ([3]; Solution, 37.5 mg/kg): 0% | % Tumor Inh. ([3]; Solution, 37.5 mg/kg): 77% | Max BW (mean) reduction ([4]; 20 mg/kg iv on days 1 and 2): −2.7% | No. of TRD ([4]; 20 mg/kg iv on days 1 and 2): 0 | No. og nTRD ([4]; 20 mg/kg iv on days 1 and 2): 0 | % TGI [4, 10]: 66*** % | No. of CR [4, 10]: 0 | No. of PR [4, 10]: 0 | mean tumor volume, (mean ± se) [4, 10]: 205 ± 44 | Max BW (mean) reduction ([4]; 37.5 mg/kg iv on days 1 and 2): −6.2% | No. of TRD ([4]; 37.5 mg/kg iv on days 1 and 2): 0 | No. og nTRD ([4]; 37.5 mg/kg iv on days 1 and 2): 0 | % TGI [4, 11]: 81% | No. of CR [4, 11]: 0 | No. of PR [4, 11]: 0 | mean tumor volume, (mean ± se) [4, 11]: 113 ± 23 | % Morbidity [5, 12]: 0/0% | % Mortality [5, 12]: 0/0% | % Tumor Inh. [5, 12]: 41.5% | concentration at 1 h ([6]; 37.5 mg/kg, BM1 level in plasma at 1 hour, Solution (TREANDA)): 1550 ng/mL | concentration at 1 h ([6]; 37.5 mg/kg, BM1 level in tumor at 1 hour, Solution (TREANDA)): 1470 ng/mL | half-life in vivo [7]: 6 to 10 min | concentration at 1 h ([8]; 37.5 mg/kg, BM1 level in plasma at 1 hour, Solution): 906 ng/mL | concentration at 1 h ([8]; 37.5 mg/kg, BM1 level in tumor at 1 hour, Solution): 558 ng/mL | IC50 [1]: 4 to 26 µM | IC50 [2]: 13 to 16 µM

CCCCCCCCCCCCCCOC(=O)CCCc1nc2cc(N(CCCl)CCCl)ccc2n1C [Bendamustine C14 Ester, 4-{5-[Bis-(chloroethyl)-amino]-1-methyl-1H-benzimidazol-2-yl}butyric acid tetradecyl ester]
% Morbidity ([3]; HSA nanoparticle, 80 mg/kg): 60% | % Mortality ([3]; HSA nanoparticle, 80 mg/kg): 0% | % Tumor Inh. ([3]; HSA nanoparticle, 80 mg/kg): 86.5% | % Morbidity ([3]; Solution, 80 mg/kg): 40% | % Mortality ([3]; Solution, 80 mg/kg): 0% | % Tumor Inh. ([3]; Solution, 80 mg/kg): 90% | Vd ([9]; 30 mg/kg, 30 mg-eq/kg): 3.2 L/kg | AUC(0-t) ([9]; 30 mg/kg, 30 mg-eq/kg): 31700 ng·h/mL | AUC(0-inf) ([9]; 30 mg/kg, 30 mg-eq/kg): 31700 ng·h/mL | clearance ([9]; 30 mg/kg, 30 mg-eq/kg): 24 mL/min/kg | half-life ([9]; 30 mg/kg, 30 mg-eq/kg): 1.52 h | Vd ([9]; 55 mg/kg, 55 mg-eq/kg): 2.5 L/kg | AUC(0-t) ([9]; 55 mg/kg, 55 mg-eq/kg): 48900 ng·h/mL | AUC(0-inf) ([9]; 55 mg/kg, 55 mg-eq/kg): 49000 ng·h/mL | clearance ([9]; 55 mg/kg, 55 mg-eq/kg): 29 mL/min/kg | half-life ([9]; 55 mg/kg, 55 mg-eq/kg): 0.98 h | Vd ([9]; 80 mg/kg, 80 mg-eq/kg): 5.2 L/kg | AUC(0-t) ([9]; 80 mg/kg, 80 mg-eq/kg): 46300 ng·h/mL | AUC(0-inf) ([9]; 80 mg/kg, 80 mg-eq/kg): 46500 ng·h/mL | clearance ([9]; 80 mg/kg, 80 mg-eq/kg): 56 mL/min/kg | half-life ([9]; 80 mg/kg, 80 mg-eq/kg): 1.09 h | % Morbidity [5, 13]: 10% | % Mortality [5, 13]: 0% | % Tumor Inh. [5, 13]: 40% | % Morbidity [5, 14]: 100% | % Mortality [5, 14]: 40% | % Tumor Inh. [5, 14]: 81% | concentration at 1 h [6, 15]: 3650 ng/mL | concentration at 1 h [6, 16]: 32200 ng/mL | concentration at 1 h [6, 17]: 4570 ng/mL | concentration at 1 h [6, 18]: 8570 ng/mL | concentration at 1 h [8, 15]: 5730 ng/mL | concentration at 1 h [8, 16]: 14 ng/mL | concentration at 1 h [8, 17]: 10400 ng/mL | concentration at 1 h [8, 18]: 396 ng/mL | IC50 [1]: 130 µM | IC50 [2]: > 200 µM
